The values that follow are results of earlier work, collected in patent US20160271121A1, “ANTIFUNGAL COMBINATION THERAPY” (Gavis Pharmaceuticals, priority 2015, published 2016).

The test system of one series is onychomycosis. The note with it: 48 weeks of topical efinaconazole.
The subject of another series is reference strains. The note with it: in vitro, versus other antifungals.

With `C=C1CCN([C@H](C)[C@](O)(Cn2cncn2)c2ccc(F)cc2F)CC1` [Efinaconazole, (2R,3R)-2-(2,4-difluorophenyl)-3-(4-methylenepiperidin-1-yl)-1-(1H-1,2,4-triazol-1-yl)butan-2-ol], the “mycological cure rate compared with other antifungal agents” value in the series on onychomycosis was “more than that for 48 weeks of topical ciclopirox and comparable to 12 weeks of oral itraconazole”. Further, in the series with reference strains, the “potency in broth dilution tests” value was “more potent than terbinafine, ciclopirox, itraconazole, and amorolfine”.
